According to PMC3692398 (Biochemical pharmacology, 2013):
Read-outs that look alike come from different tables or passages of the source.

Experiments:
h5-HT2A receptor [1] = biological target: T1, h5-HT2A receptor (Homo sapiens, UniProt P28223); conditions: data not shown
hSERT [2] = biological target: T2, hSERT (Homo sapiens, UniProt P31645); experiment: Inhibition of [125I]RTI-55 binding, HEK-hSERT membranes
hSERT [3] = biological target: T2, hSERT; experiment: Inhibition of [3H]5-HT uptake, intact HEK-hSERT cells; format: cell-based
hNET [4] = biological target: T3, hNET (Homo sapiens, UniProt P23975); experiment: cell-based; format: cell-based
hNET [5] = biological target: T3, hNET; experiment: biochemical; format: binding
hVMAT2 [6] = biological target: T4, hVMAT2 (Homo sapiens, UniProt Q05940); experiment: Inhibition of [3H]DHTB binding, HEK-hVMAT2 membranes
h5-HT2C receptor [7] = biological target: T5, h5-HT2C receptor (Homo sapiens, UniProt P28335); experiment: Inhibition of 5-HT-stimulated IP-1 formation; format: cell-based; conditions: for h5-HT2C Inhibition of 5-HT-stimulated IP-1 formation % maximum inhibition ± sem: 100 nM 5-HT, normalized to maximal inhibition by SB242084 (1 µM)
T5 sequence (P28335 33-458): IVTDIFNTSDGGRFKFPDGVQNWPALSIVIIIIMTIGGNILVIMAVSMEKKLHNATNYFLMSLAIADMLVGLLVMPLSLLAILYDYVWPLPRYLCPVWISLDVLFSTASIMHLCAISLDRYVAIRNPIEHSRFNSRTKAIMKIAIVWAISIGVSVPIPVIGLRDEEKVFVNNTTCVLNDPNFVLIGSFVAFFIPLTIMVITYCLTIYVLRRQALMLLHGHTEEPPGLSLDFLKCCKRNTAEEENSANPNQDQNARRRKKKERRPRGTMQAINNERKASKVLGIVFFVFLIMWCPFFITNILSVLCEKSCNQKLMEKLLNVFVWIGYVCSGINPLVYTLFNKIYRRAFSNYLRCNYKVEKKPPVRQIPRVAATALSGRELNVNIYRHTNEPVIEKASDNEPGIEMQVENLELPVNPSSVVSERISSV

hVMAT2 [8] = biological target: T4, hVMAT2; experiment: Inhibition of [3H]5-HT uptake, HEK-hVMAT2 membrane preparation; format: biochemical
h5-HT2A receptor [9] = biological target: T1, h5-HT2A receptor; experiment: Inhibition of 5-HT-stimulated IP-1 formation; format: cell-based; conditions: for h5-HT2A Inhibition of 5-HT-stimulated IP-1 formation % maximum inhibition ± sem: 100 nM 5-HT, normalized to maximal inhibition by ketanserin (10 µM)
hNET [10] = biological target: T3, hNET; experiment: Superfusion release of preloaded [3H]NE from HEK-hNET cells; format: cell-based; conditions: for % maximum release ± sem, hNET [3H]NE: relative to maximal AUC induced by METH (0.3 or 1 µM)
hDAT [11] = biological target: T6, hDAT (Homo sapiens, UniProt Q01959); experiment: Inhibition of [125I]RTI-55 binding, HEK-hDAT membranes
hVMAT2 [12] = biological target: T4, hVMAT2; experiment: Superfusion release of preloaded [3H]NE from HEK-hVMAT2 cells; format: cell-based
h5-HT1A receptor [13] = biological target: T7, h5-HT1A receptor (Homo sapiens, UniProt P08908); experiment: [3H]8-OH-DPAT binding, HEK-h5-HT1A
T7 sequence (P08908 1-422): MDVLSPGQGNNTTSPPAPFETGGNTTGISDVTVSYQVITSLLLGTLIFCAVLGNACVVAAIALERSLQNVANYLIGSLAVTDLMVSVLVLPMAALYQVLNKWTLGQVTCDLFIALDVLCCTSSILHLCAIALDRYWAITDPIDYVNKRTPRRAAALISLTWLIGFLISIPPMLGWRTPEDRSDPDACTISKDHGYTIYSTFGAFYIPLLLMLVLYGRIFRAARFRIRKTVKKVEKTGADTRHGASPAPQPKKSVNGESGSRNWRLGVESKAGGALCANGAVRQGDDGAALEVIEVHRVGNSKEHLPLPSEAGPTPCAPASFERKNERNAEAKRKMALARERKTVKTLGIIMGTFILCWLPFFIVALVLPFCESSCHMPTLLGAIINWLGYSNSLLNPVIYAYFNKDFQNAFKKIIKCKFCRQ

h5-HT1A receptor [14] = biological target: T7, h5-HT1A receptor; experiment: Stimulation of [35S]GTPγS binding, HEK-h5-HT1A membranes; format: biochemical; conditions: for Emax: read-out: h5-HT1A Stimulation of [35S]GTPγS binding % maximum stimulation ± sem
[15] = blood from heart, periphery, and femoral veins; postmortem cases; ref [32];[33];[34]; cited from earlier work
h5-HT2C receptor [16] = biological target: T5, h5-HT2C receptor; experiment: biochemical; format: binding
hDAT [17] = biological target: T6, hDAT; experiment: Superfusion release of preloaded [3H]DA from HEK-hDAT cells; format: cell-based; conditions: for time of peak/maximal [3H]DA release after addition of drug: 4-FMC 10 µM to 300 µM, mephedrone 30 µM, methylone 100 µM
hSigma1 receptor = hSigma1 receptor (Homo sapiens, UniProt Q99720); experiment: [3H]; format: binding; conditions: Inhibition of [3H]pentazocine binding Ki ± sem, hSigma1
hDAT [18] = biological target: T6, hDAT; experiment: Inhibition of [3H]DA uptake, intact HEK-hDAT cells; format: cell-based
hSERT [19] = biological target: T2, hSERT; experiment: Superfusion release of preloaded [3H]5-HT from HEK-hSERT cells; format: cell-based
h5-HT2A receptor [20] = biological target: T1, h5-HT2A receptor; experiment: [125I]DOI binding, HEK-h5-HT2A
human DA D2 receptor = human DA D2 receptor (Homo sapiens, UniProt P14416); format: binding
human DA D2 receptor, sequence (P14416 whole entry): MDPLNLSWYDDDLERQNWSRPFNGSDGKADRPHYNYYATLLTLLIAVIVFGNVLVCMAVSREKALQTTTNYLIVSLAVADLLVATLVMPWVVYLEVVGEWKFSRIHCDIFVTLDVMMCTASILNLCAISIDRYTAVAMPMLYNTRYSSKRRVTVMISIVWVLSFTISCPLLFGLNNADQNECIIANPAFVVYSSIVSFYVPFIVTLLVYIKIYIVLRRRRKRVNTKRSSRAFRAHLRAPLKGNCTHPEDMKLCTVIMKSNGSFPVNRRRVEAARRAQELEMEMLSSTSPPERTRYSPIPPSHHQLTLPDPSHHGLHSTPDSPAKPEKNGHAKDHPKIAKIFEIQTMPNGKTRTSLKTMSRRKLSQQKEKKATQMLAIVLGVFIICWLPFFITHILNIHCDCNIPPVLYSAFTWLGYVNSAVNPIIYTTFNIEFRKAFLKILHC

T1 sequence (P28223 whole entry): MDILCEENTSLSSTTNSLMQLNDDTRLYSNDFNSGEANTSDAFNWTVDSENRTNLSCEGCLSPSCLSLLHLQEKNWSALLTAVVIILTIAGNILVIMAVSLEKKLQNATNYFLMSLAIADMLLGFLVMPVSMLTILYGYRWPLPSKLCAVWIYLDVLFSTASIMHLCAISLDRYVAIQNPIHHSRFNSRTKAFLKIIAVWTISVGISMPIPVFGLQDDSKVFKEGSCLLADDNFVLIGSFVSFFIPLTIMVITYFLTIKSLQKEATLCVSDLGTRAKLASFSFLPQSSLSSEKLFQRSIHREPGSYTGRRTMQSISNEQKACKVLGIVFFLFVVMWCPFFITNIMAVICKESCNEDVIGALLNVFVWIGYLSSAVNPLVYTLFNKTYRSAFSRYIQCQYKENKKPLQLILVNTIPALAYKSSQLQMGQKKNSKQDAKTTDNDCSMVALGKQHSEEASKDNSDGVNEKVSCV
T4 sequence (Q05940 whole entry): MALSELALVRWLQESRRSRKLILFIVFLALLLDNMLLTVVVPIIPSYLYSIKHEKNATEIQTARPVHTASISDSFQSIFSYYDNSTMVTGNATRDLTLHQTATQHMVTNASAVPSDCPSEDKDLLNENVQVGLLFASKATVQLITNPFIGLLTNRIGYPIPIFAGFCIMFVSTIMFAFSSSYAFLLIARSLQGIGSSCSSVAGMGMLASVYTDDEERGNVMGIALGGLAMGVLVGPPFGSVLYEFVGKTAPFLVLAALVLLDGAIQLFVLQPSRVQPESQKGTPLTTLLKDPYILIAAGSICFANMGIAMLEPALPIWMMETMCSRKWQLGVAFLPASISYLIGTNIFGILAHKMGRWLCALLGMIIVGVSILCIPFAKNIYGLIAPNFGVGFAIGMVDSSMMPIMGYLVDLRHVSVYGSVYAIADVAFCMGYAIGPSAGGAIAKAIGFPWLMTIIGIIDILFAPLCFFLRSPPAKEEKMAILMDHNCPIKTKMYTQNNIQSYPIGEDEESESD
T3 sequence (P23975 whole entry): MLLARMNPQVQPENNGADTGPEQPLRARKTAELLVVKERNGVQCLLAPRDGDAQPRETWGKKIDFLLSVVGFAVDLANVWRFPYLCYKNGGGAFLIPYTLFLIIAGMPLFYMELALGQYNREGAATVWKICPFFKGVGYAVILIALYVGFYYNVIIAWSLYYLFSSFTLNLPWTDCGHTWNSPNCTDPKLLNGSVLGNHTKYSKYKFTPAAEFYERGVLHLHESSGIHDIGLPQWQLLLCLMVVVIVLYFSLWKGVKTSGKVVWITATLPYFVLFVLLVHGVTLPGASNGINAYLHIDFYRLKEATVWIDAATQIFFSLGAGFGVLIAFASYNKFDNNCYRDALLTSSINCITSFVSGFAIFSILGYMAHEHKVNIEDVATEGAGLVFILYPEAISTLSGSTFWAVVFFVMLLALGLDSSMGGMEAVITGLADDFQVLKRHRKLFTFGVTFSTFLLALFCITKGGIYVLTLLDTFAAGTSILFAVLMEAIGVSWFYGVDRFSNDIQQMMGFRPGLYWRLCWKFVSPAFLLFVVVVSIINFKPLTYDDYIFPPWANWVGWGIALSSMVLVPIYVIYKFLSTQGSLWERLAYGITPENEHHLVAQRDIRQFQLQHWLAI
T2 sequence (P31645 whole entry): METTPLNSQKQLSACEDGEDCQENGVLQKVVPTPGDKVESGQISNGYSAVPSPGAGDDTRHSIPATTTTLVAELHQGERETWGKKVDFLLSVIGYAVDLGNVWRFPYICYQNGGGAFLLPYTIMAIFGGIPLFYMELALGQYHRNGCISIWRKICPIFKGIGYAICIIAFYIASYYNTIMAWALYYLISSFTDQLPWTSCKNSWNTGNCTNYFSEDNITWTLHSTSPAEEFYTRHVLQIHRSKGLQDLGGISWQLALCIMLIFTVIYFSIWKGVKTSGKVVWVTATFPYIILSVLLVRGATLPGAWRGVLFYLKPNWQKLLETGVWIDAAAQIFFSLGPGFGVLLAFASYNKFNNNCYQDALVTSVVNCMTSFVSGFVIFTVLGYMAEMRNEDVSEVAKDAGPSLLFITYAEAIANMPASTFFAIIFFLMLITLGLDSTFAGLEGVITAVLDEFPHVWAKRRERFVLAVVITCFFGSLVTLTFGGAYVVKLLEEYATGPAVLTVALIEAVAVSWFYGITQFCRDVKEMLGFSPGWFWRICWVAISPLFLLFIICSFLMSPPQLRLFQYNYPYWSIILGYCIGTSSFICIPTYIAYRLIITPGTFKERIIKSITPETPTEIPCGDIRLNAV
T6 sequence (Q01959 whole entry, the tested form may be a part): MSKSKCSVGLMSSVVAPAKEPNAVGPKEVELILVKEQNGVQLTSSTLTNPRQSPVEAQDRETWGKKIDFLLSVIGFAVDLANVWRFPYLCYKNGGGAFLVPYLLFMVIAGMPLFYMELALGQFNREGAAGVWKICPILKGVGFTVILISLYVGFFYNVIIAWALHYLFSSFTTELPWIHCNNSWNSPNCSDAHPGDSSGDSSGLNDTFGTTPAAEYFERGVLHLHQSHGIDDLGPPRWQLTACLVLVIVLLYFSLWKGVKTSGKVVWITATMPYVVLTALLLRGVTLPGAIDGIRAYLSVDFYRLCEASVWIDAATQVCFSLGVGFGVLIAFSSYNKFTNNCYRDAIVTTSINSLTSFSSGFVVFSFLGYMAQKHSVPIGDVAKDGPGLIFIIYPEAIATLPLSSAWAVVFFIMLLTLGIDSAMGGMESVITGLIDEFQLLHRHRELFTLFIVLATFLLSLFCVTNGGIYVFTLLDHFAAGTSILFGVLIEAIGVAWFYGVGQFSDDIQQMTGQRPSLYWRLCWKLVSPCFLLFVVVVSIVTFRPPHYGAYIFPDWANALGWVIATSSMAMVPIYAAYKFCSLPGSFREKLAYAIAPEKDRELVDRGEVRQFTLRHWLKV
hSigma1 receptor, sequence (Q99720 whole entry): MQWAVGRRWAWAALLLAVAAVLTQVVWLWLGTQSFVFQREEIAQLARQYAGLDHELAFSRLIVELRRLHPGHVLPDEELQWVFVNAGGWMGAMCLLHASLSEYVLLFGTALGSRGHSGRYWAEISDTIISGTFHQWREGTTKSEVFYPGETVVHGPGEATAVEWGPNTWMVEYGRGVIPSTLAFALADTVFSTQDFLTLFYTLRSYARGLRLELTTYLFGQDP

SMILES | h5-HT2A agonist activity, inositol monophosphate (h5-HT2A receptor [1]) | Ki (hSERT [2]) [µM] | IC50 (hSERT [3]) [µM] | IC50 (hNET [4]) [µM] | Ki (hNET [5]) [µM] | Ki (hVMAT2 [6]) [µM] | IC50 (h5-HT2C receptor [7]) [µM] | h5-HT2C Inhibition of 5-HT-stimulated IP-1 formation % maximum inhibition ± sem (h5-HT2C receptor [7]) [%] | IC50 (hVMAT2 [8]) [µM] | h5-HT2A Inhibition of 5-HT-stimulated IP-1 formation % maximum inhibition ± sem (h5-HT2A receptor [9]) [%] | EC50 (hNET [10]) [µM] | time of peak [3H]NE release after addition of drug (hNET [10]) [min] | % maximum release ± sem, hNET [3H]NE (hNET [10]) [%] | Ki (hDAT [11]) [µM] | EC50 (hVMAT2 [12]) [µM] | Release of [3H]NE % maximum release ± sem or range, hVMAT2 (hVMAT2 [12]) [%] | Ki (h5-HT1A receptor [13]) [µM] | EC50 (h5-HT1A receptor [14]) [µM] | Emax (h5-HT1A receptor [14]) [%] | postmortem blood concentration [15] [mg/L] | further results
NCCc1c[nH]c2ccc(O)cc12 [5-HT, 5-hydroxy-tryptamine] | full agonists with potencies in the low nanomolar range |  |  |  |  |  |  |  |  |  |  |  |  |  |  |  |  |  |  |  | 
CCN(CC)C(=O)[C@@H]1C=C2c3cccc4[nH]cc(c34)C[C@H]2N(C)C1 [LSD, lysergic acid diethylamide] | full agonists with potencies in the low nanomolar range |  |  |  |  |  |  |  |  |  |  |  |  |  |  |  |  |  |  |  | 
OC1(c2ccc(Cl)cc2)c2ccccc2C2=NCCN21 (stereo not shown) [Mazindol, reference compound] |  | 0.026 ± 0.012 | 0.0307 ± 0.0055 | 0.00185 ± 0.00049 | 0.0054 ± 0.0016 |  |  |  |  |  |  |  |  |  |  |  |  |  |  |  | 
CNC(C)C(=O)c1ccc(C)cc1 (stereo not shown) [Mephedrone, 4-methyl-N-methylcathinone] |  | 21 ± 4.8 | 0.51 ± 0.15 | 0.0536 ± 0.0087 | 11.8 ± 4 | > 1000 | > 440 | 66.3 ± 8.4 | 116 ± 8.8 | 98.7 ± 1.3 | 0.41 ± 0.13 | 8 to 16 | 152 ± 32 | 4.8 ± 0.75 | 66 ± 23 | 33.1 ± 1.9 | > 91 | 126 ± 29 | 44 | 0.06 to 3.3 | postmortem blood concentration (molar) [15]: 0.25 to 14 µM; Ki (h5-HT2C receptor [16]): 9.1 ± 2.1 µM; % maximum release ± sem, hDAT [3H]DA (hDAT [17]): 68 ± 11%; EC50 (hDAT [17]): 1.19 ± 0.34 µM; time of peak/maximal [3H]DA release after addition of drug (hDAT [17]): 8 min; Ki (hSigma1 receptor): 7.8 ± 2 µM; IC50 (hDAT [18]): 0.098 ± 0.027 µM; % maximum release ± sem, hSERT [3H]5-HT (hSERT [19]): 53 ± 13%; EC50 (hSERT [19]): 11.9 ± 4.9 µM; time of peak [3H]5-HT release after addition of drug (hSERT [19]): about 6 min
CNC(C)C(=O)c1ccc2c(c1)OCO2 (stereo not shown) [Methylone, 3,4-methylenedioxy-N-methylcathinone] |  | 95.5 ± 4.3 | 1.92 ± 0.35 | 0.234 ± 0.055 | 16.5 ± 4.9 | > 1000 | > 1000 | 28.0 ± 7.5 | > 100 | 84.7 ± 5.2 | 0.426 ± 0.067 | 8 to 16 | 122 ± 32 | 5.02 ± 0.29 | > 100 | 21.8 ± 8.5 | 63.3 ± 0.98 | 143 ± 32 | 47 | 0.06 to 3.3 | Ki (h5-HT2A receptor [20]): 48.5 ± 8 µM; IC50 (h5-HT2A receptor [9]): 159 ± 11 µM; Release of [3H]NE % maximum release ± sem or range, hVMAT2 (hVMAT2 [12]; listed as methylone): less than 35%; postmortem blood concentration (molar) [15]: 0.25 to 14 µM; Ki (h5-HT2C receptor [16]): 10.6 ± 1.8 µM; % maximum release ± sem, hDAT [3H]DA (hDAT [17]): 41 ± 12%; EC50 (hDAT [17]): 11.8 ± 5.6 µM; time of peak/maximal [3H]DA release after addition of drug (hDAT [17]): ≤ 6 min; fold less potent than METH to induce [3H]DA release (hDAT [17]; EC50 compared to METH): 30 fold; % maximum release ± sem, hDAT [3H]DA (hDAT [17]; listed as methylone): 41%; Ki (hSigma1 receptor): 25.5 ± 7.7 µM; IC50 (hDAT [18]): 0.343 ± 0.024 µM; ratio of binding Ki to uptake IC50, hDAT (hDAT [18]; [125I]RTI-55 Ki / [3H]DA uptake IC50): 15; ratio of binding Ki to uptake IC50, hSERT (hSERT [3]; [125I]RTI-55 Ki / [3H]5-HT uptake IC50): 50; ratio of binding Ki to uptake IC50, hNET (hNET [4]; [125I]RTI-55 Ki / [3H]NE uptake IC50): 71; % maximum release ± sem, hSERT [3H]5-HT (hSERT [19]): 78 ± 18%; EC50 (hSERT [19]): 6.7 ± 2.78 µM; time of peak [3H]5-HT release after addition of drug (hSERT [19]): about 6 min
CC(C)(C)[C@]1(O)CCN2C[C@H]3c4ccccc4CCc4cccc(c43)[C@@H]2C1 [butaclamol] |  |  |  |  |  |  |  |  |  |  |  |  |  |  |  |  |  |  |  |  | affinity for the [3H]YM-09151-2 binding site, DA D2 receptor (human DA D2 receptor): subnanomolar
